# “Also recorded” adds a separate entry of the source. Structures can show the parent of a compound that is named as a salt. Where two headings read alike, the source gives them in different places. Where a SMILES comes first, the peptide text is derived from it. The star is where a group is joined. Cbz = O=C(OCc1ccccc1)*
# Legend:
# N-acyl-L-proline acylase [1] = assay: Substrate specificity: hydrolysis of N-acyl amino acids and proline derivatives; type: biochemical, Comamonas testosteroni DSM 5416; conditions: for Rel. activity (%) / Relative Activity (%): N-acetyl-L-proline = 100%; for Relative Activity (%): proline derivatives
# Procedure: The activity of acylase was determined with various N-acetyl-L-amino acids and N-chloroacetyl-L-amino acids in a reaction batch with the following composition:
# The reaction temperature was 30° C. and the incubation time 15 minutes to 24 hours. 0.2 ml samples of the reaction batch in each instance were mixed at different times with 0.2 ml 10% (w/v) trichloroacetic acid and the denatured protein centrifuged off for 10 minutes at 11,000 rpms in a table centrifuge. The supernatant was diluted with a 0.1M Na citrate buffer pH 2.2 with 25% (v/v) 2.2-thiodiethanol and 0.1% (v/v) phenol 1:5 and 1:50 respectively. The amino acids released were quantitatively detected by an amino-acid analyzer LC 5001 of the firm Biotronic, Maintal, Federal Republic of Germany. In Table 16, the substrates marked with * and the corresponding products were quantified by means of HPLC.
# The activity of the acylase was determined with various proline derivatives as under a).
# N-acyl-L-proline acylase [2] = type: biochemical, Comamonas testosteroni DSM 5416
# Procedure: The enzymatic reaction was interrupted by pipetting 50 μl of the enzyme sample into 1.25 ml 100% acetic acid. Subsequently, 0.45 ml 0.1M tris-HCl buffer pH 7.0 and 1.25 ml ninhydrin reagent (3 g ninhydrin dissolved by heating in a mixture of 60 ml 100% acetic acid and 40 ml 6M phosphoric acid) were added. The ninhydrin reagent was freshly prepared daily. The test tubes were loosely closed with screw-on caps, incubated 30 minutes at 100° C. and subsequently cooled down in an ice bath.
# The L-proline, liberated by the enzymatic hydrolysis, forms a red dye with ninhydrin at 100° C. The absorption of the red dye was measured in a spectrophotometer at 480 nm relative to a control batch without crude extract (=substrate blank). The concentration of the L-proline produced was determined using a straight calibration line with L-proline in a range of 5 to 100 nmoles per 50 μl specimen. The enzyme activity was indicated in international units; thus, one unit (U) corresponded to an amount of 1 μmole L-proline produced per minute.
# The influence of various chemical agents as well as metal cations and anions on the reaction speed of the hydrolytic splitting of N-acetyl-L-proline was determined at 30° C. in a reaction batch with the following composition: […]
# The enzyme was pre-incubated for 10 minutes at 30° C. with the compound before the addition of substrate to start the reaction.
# The enzyme was pre-incubated for 10 minutes at 30° C. with the agent before the substrate was added to start the reaction.
# The enzyme was pre-incubated 10 minutes at 30° C. with the agent before the substrate was added to start the reaction. The concentration of the anions was 10 mM in each instance.
# [3] = 20 mM substrate 1.0 ml in 2.0 ml batch, 30° C., pH 7.0, amino-acid analyzer
# [4] = chemical agent 1 mM, 10 min pre-incubation at 30° C., no agent = 100
# [5] = chemical agent 10 mM, 10 min pre-incubation at 30° C., no agent = 100
compound,measurement,setting,value
"CC(=O)NC(CO)C(=O)O (racemic) [Ac--D,L--Ser]",Rel. activity (%),N-acyl-L-proline acylase [1]; [3],0.2%
C[C@H](NC(=O)[C@@H]1CCCN1C(=O)OCc1ccccc1)C(=O)O [Z--L--Pro--L--Ala--OH] (Cbz-Pro-Ala-OH),Relative Activity (%),"N-acyl-L-proline acylase [1]; 30° C., pH 7.0",0%
O=C(O)[C@@H]1CSCN1C(=O)CCl [N-chloroacetyl-L-thiazolidine-4-carboxylic acid],Hydrolysis by the acylase (in words),N-acyl-L-proline acylase [1],hydrolyzes; also recorded: hydrolyzed especially well
same,Rel. activity (%),N-acyl-L-proline acylase [1]; [3],462%
O=C([O-])c1cc[c]([Hg][OH])cc1 [4-hydroxymercuribenzoate],Activity (%),N-acyl-L-proline acylase [2]; [4],88%
same,Activity (%),N-acyl-L-proline acylase [2]; [5],41%
same,Influence on the acylase activity (in words),N-acyl-L-proline acylase [2]; native enzyme,inhibiting action; also recorded: significantly inhibit
CC(=O)N[C@@H](C)C(=O)N1CCC[C@H]1C(=O)O [Ac--L--Ala--L--Pro--OH] (Ac-Ala-Pro-OH),Relative Activity (%),"N-acyl-L-proline acylase [1]; 30° C., pH 7.0",0%
CC(C)(C)OC(=O)N1CCC[C@H]1C(=O)O [Boc--L--Pro--OH],Relative Activity (%),"N-acyl-L-proline acylase [1]; 30° C., pH 7.0",0%
O=S(=O)(F)Cc1ccccc1 [PMSF],Activity (%),"N-acyl-L-proline acylase [2]; chemical agent 0.1 mM, 10 min pre-incubation at 30° C.",104%
same,Activity (%),N-acyl-L-proline acylase [2]; [4],130%
COC(=O)[C@@H]1CCCN1C(C)=O [N-acetyl-L-proline methyl ester],Hydrolysis by the acylase (in words),N-acyl-L-proline acylase [1],not hydrolyzed
same,Relative Activity (%),"N-acyl-L-proline acylase [1]; 30° C., pH 7.0",0%
O[C@H](CS)[C@H](O)CS (racemic) [Dithiothreitol],Activity (%),N-acyl-L-proline acylase [2]; [4],129%
same,Activity (%),N-acyl-L-proline acylase [2]; [5],48%
"O=C(O)C1CCCCN1C(=O)CCl (racemic) [ClAc--D,L-pipecolic acid, N-chloroacetyl-D,L-pipecolic acid]",Hydrolysis by the acylase (in words),N-acyl-L-proline acylase [1],reacted at a distinctly lower speed
same,Rel. activity (%),"N-acyl-L-proline acylase [1]; substrate concentration 50 mM, quantified by HPLC",16%
O=[N+]([O-])[O-].[K+] [KNO3],Activity (%),"N-acyl-L-proline acylase [2]; anion 10 mM, no agent = 100",96%
CC(=O)N1CC(O)C[C@H]1C(=O)O (stereo partly drawn) [N-acetyl-L-4-hydroxyproline],Hydrolysis by the acylase (in words),N-acyl-L-proline acylase [1],hydrolyzes
same,Relative Activity (%),"N-acyl-L-proline acylase [1]; 30° C., pH 7.0",10%
O=N[O-].[Na+] [NaNO2],Activity (%),N-acyl-L-proline acylase [2],71%
same,Influence on the acylase activity (in words),N-acyl-L-proline acylase [2],slightly inhibited
O=C(O)CNC(=O)[C@@H]1CCCN1 [H--L--Pro--Gly--OH] (H-Pro-Gly-OH),Relative Activity (%),"N-acyl-L-proline acylase [1]; 30° C., pH 7.0",0%
CC(=O)N[C@@H](Cc1ccc(O)cc1)C(=O)O [Ac--L--Tyr],Rel. activity (%),N-acyl-L-proline acylase [1]; [3],0%
CCC(=O)N1CCC[C@H]1C(=O)O [N-propionyl-L-proline],Hydrolysis by the acylase (in words),N-acyl-L-proline acylase [1],hydrolyzes
same,Relative Activity (%),"N-acyl-L-proline acylase [1]; 30° C., pH 7.0",29%
O=C(O)CC(O)(CC(=O)O)C(=O)O [Na citrate],Activity (%),N-acyl-L-proline acylase [2]; [4],102%
same,Activity (%),N-acyl-L-proline acylase [2]; [5],102%
OCCS [2-mercaptoethanol],Activity (%),"N-acyl-L-proline acylase [2]; chemical agent 14 mM, 10 min pre-incubation at 30° C.",14%
same,Influence on the acylase activity (in words),N-acyl-L-proline acylase [2]; native enzyme,inhibiting action; also recorded: significantly inhibit
"c1ccc(-c2ccccn2)nc1 [2,2-bipyridine]",Activity (%),N-acyl-L-proline acylase [2]; [4],102%
same,Activity (%),N-acyl-L-proline acylase [2]; [5],66%
CCCCCC(=O)N1CCC[C@H]1C(=O)O [N-caproyl-L-proline],Hydrolysis by the acylase (in words),N-acyl-L-proline acylase [1],hydrolyzes
same,Relative Activity (%),"N-acyl-L-proline acylase [1]; 30° C., pH 7.0",9%
O=CN1CCC[C@H]1C(=O)O [N-formyl-L-proline],Hydrolysis by the acylase (in words),N-acyl-L-proline acylase [1],hydrolyzes
same,Relative Activity (%),"N-acyl-L-proline acylase [1]; 30° C., pH 7.0",18%
CC(=O)N[C@@H](CS)C(=O)O [Ac--L--Cys],Rel. activity (%),N-acyl-L-proline acylase [1]; [3],0%
CCCCC(=O)N1CCC[C@H]1C(=O)O [N-valeryl-L-proline],Hydrolysis by the acylase (in words),N-acyl-L-proline acylase [1],hydrolyzes
same,Relative Activity (%),"N-acyl-L-proline acylase [1]; 30° C., pH 7.0",15%
[Cl-].[Na+] [NaCl],Activity (%),N-acyl-L-proline acylase [2],99%
